The subject of data set [1] is Aedes aegypti larvae. Kind of data set: Aedes aegypti killing assay (larval bioassay, two-fold dilution series). Type of data set: in vivo. As to conditions: for killing activity against Aedes aegypti: larvae. Here is the method: Insect killing assays. Each compound was dissolved in dimethyl sulfoxide (DMSO). Killing dose curves were constructed for each compound by producing a two-fold dilution series for each compound (e.g., comprising approximately 20 serial dilutions of a stock). Dilutions were made in sterile nutrient yeast extract salt medium (NYSM) broth. The NYSM contained 8 g/L nutrient broth powder, 0.5 g/L yeast extract, 1 mM MgCl2, 700 μM CaCl2, and 50 μM MnCl2 in water. The two-fold dilution series were tested in a killing bioassay as described below. Data were collected to construct a dose curve and determine the half-maximal lethal concentration (LC50) value.
Bioassays were performed using second or third instar Aedes aegypti larvae, with biological replication. Ae. aegpyti larvae were purchased from Benzon Research, Inc. (Carlisle, PA). Larvae were washed with sterile water before transfer to 24-well assay plates containing 1 mL of sterile water in each well. Each well contained 5 larvae. The final DMSO concentration in each assay well was 1%. Larval mortality was scored for each well at 24-hour timepoints after application. […] In Table 1, mean mortalities and standard deviations were calculated from at least three independent biological replicates. […] LC50 values were calculated using GraphPad Prism software.

The subject of data set [2] is Spodoptera frugiperda (fall armyworm) first instar larvae. As to the kind of experiment: Spodoptera frugiperda killing assay (diet-surface overlay). The format is in vivo. The method, then: Insect killing assays. Each compound was dissolved in dimethyl sulfoxide (DMSO). Killing dose curves were constructed for each compound by producing a two-fold dilution series of the compound (e.g., comprising approximately 16 serial dilutions of a stock for 3,3′-diindolylmethane and 3-((1H-Indol-2-yl)methyl)-1H-indole and comprising approximately 12 serial dilutions of a stock for 3,3′-diindolyl and 3,3′-(pyridin-4-ylmethylene)bis(1H-indole)). Dilutions were made in sterile NYSM broth as described above. The two-fold dilution series were tested in a killing bioassay as described below. Data were collected to construct a dose curve and determine the half-maximal lethal concentration (LC50) value.
Bioassays were performed using first instar larvae of the Lepidopteran species Spodoptera frugiperda (fall armyworm), with an N=16 for each concentration of compound tested. S. frugiperda larvae were purchased from Benzon Research, Inc. (Carlisle, PA). A diet-surface overlay format was used in which 1 milliliter of standard lepidopteran diet was placed in each well. One hundred microliters of sample were pipetted into each well and allowed to dry. A DMSO control was included with each set of samples.
During the development of embodiments of the technology described herein, experiments were conducted to test the killing of arundine against a panel of 11 insect species. […] Briefly, arundine was dissolved in dimethyl sulfoxide (DMSO). Killing dose curves were constructed by producing a two-fold dilution series of arundine. Dilutions were made in sterile NYSM as described. The two-fold dilution series were tested in a killing bioassay performed using first instar larvae of the species listed in Table 4, with an N=16 for each concentration of compound tested. A diet-surface overlay format was used in which 1 milliliter of standard lepidopteran diet was placed in each well. One hundred microliters of sample were pipetted into each well and allowed to dry. A DMSO control was included with each set of samples. […] Data were collected to construct a dose curve and determine the half-maximal lethal concentration (LC50) value.

The mark [3] stands for this setting: second or third instar larvae, mortalities at 72 hours, mean ± standard deviation, at least three biological replicates.
Setting [4] is: second or third instar larvae, mortalities at 72 hours, mean ± standard deviation, at least three biological replicates, read-out: LC50.
Where [5] appears, read: Spodoptera frugiperda, first instar larvae, calculated from killing dose curves FIG. 3D to 3NN, read-out: LD50 (the source's name).
Setting [6] is: first instar larvae, calculated from killing dose curves FIG. 3D to 3NN, read-out: LD50 (the source's name).

In brackets after ≈: the same amount, converted by molar mass. Several values for one entry are separate records, joined by “and”; a condition that tells them apart may be missing. Equal entries are not always repeated. Entries after “also recorded” stand apart in the source; their conditions may differ. Where two headings read alike, the source gives them in different places.

For `COc1ccc(C(c2c[nH]c3ccccc23)c2c[nH]c3ccccc23)cc1` [1,1-bis(3′-indolyl)-1-(p-methoxyphenyl)methane], in data set [1] (in vivo), the LC50 turned out to be 66.6 ± 56.4 µM and the “LC50 (μg/mL)” value was found to be 23.4 ± 19.8 µg/mL (≈ 66.4 µM). Consider `Cc1cn(C)c2ccccc12` [1,3 dimethylindole, 1,3-dimethylindole], for which, in data set [1] (Aedes aegypti, 72 h), the LC50 was 13.8 µg/mL and 95.2 µM. In the case of `Cc1cc2ccccc2[nH]1` [2-methindole], in data set [1] (setting [3]), the “LC50 (μg/mL)” value was 6.8 ± 0.5 µg/mL (≈ 51.8 µM). In addition, the LC50 in data set [1] (setting [4]) is 52.2 ± 3.6 µM. On to `Clc1ccc(C(c2c[nH]c3ccccc23)c2c[nH]c3ccccc23)cc1` [3,3′-((4-chlorophenyl)methylene)bis(1H-indole)], for which the LC50 in data set [1] (Aedes aegypti, 72 h) was 2.6 µg/mL and 7.3 µM.

Regarding `CC(c1c[nH]c2ccccc12)c1c[nH]c2ccccc12` [3,3′-(ethane-1,1-diyl)bis(1H-indole)], the LC50 in data set [1] (Aedes aegypti, 72 h) was 4.2 µg/mL and 16.1 µM. For the compound `c1ccc2c(C(c3ccncc3)c3c[nH]c4ccccc34)c[nH]c2c1` [3,3′-(pyridin-4-ylmethylene)bis(1H-indole)], the LC50 in data set [2] (Spodoptera frugiperda, first instar larvae, N=16 per concentration, representative curve fit) is 120 µg/mL and 370 µM; in data set [1] (Aedes aegypti, 72 h), 62.9 µg/mL and 194 µM. Moreover, the “activity against S. frugiperda” value in data set [2] (first instar larvae) is “active”. Also, the “killing activity against Aedes aegypti” value in data set [1] is listed as “active”. With `c1ccc2c(-c3c[nH]c4ccccc34)c[nH]c2c1` [3,3′-diindolyl], in data set [2] (first instar larvae), the “activity against S. frugiperda” value is recorded as “not active; also recorded: does not have significant killing activity”. For the same compound, in data set [1], the “killing activity against Aedes aegypti” value is listed as “did not display any bioactivity; also recorded: does not have significant killing activity”. Besides, the “LC50 (μg/mL)” value in data set [1] (setting [3]) was above 2500 µg/mL. Further, the LC50 in data set [1] (setting [4]) is above 1000 µM. For `Fc1ccc2[nH]cc(Cc3c[nH]c4ccc(F)cc34)c2c1` [3,3′-methylenebis(5-fluoro-1H-indole)], the LC50 in data set [1] (Aedes aegypti, 72 h) was 2.2 µg/mL and 7.8 µM. As for `CCc1c[nH]c2ccccc12` [3-ethyl-1H-indole], the LC50 in data set [1] (Aedes aegypti, second or third instar larvae, mortalities at 72 hours, mean ± standard deviation, at least three biological replicates, read-out: LC50) came out at 60 ± 24.2 µM; in data set [1] (Aedes aegypti, second or third instar larvae, mortalities at 72 hours, mean ± standard deviation, at least three biological replicates, read-out: LC50 (μg/mL)) it was 8.7 ± 3.5 µg/mL. For the compound `Oc1ccc2[nH]ccc2c1` [5-hydroxyindole], in data set [1] (Aedes aegypti, 72 h), the LC50 is 279 µg/mL and 2.09 mM. In the case of `Cn1cc(Cc2cn(C)c3ccccc23)c2ccccc21` [BIM-2], the LC50 in data set [2] (setting [5]) was above 3000 µM. As for `CC(c1c[nH]c2ccccc12)c1c[nH]c2ccccc12` [BIM-3], in data set [2] (setting [5]), the LC50 is 1280 µM. Turning to `CC(C)(c1c[nH]c2ccccc12)c1c[nH]c2ccccc12` [BIM-4], the LC50 in data set [2] (setting [5]) was 1810 µM. Still for that read-out and setting: the value for `CCC(c1c[nH]c2ccccc12)c1c[nH]c2ccccc12` [BIM-5] was 2380 µM.

Take `CCCC(c1c[nH]c2ccccc12)c1c[nH]c2ccccc12` [BIM-6]: the LC50 in data set [2] (setting [5]) was 3240 µM. On to `c1ccc(C(c2c[nH]c3ccccc23)c2c[nH]c3ccccc23)cc1` [BIM-7], for which the LC50 in data set [2] (setting [5]) is 1680 µM. The same measure, in the same setting: with `c1ccc(CC(c2c[nH]c3ccccc23)c2c[nH]c3ccccc23)cc1` [BIM-8] the figure was 1480 µM; with `Clc1cccc2[nH]cc(Cc3c[nH]c4cccc(Cl)c34)c12` [BIM-9], 1560 µM. Take `Clc1ccc2[nH]cc(Cc3c[nH]c4ccc(Cl)cc34)c2c1` [BIM-10]: in data set [2] (setting [5]), the LC50 is above 3000 µM.

As to `Clc1cccc2c(Cc3c[nH]c4c(Cl)cccc34)c[nH]c12` [BIM-12], the LC50 in data set [2] (setting [5]) was 1180 µM.

As to `Fc1ccc2c(Cc3c[nH]c4cc(F)ccc34)c[nH]c2c1` [BIM-13], the LC50 in data set [2] (setting [5]) was 1850 µM. Turning to `Brc1ccc2c(Cc3c[nH]c4cc(Br)ccc34)c[nH]c2c1` [BIM-14], the LC50 in data set [2] (setting [5]) was 934 µM. Still for that read-out and setting: with `Ic1ccc2c(Cc3c[nH]c4cc(I)ccc34)c[nH]c2c1` [BIM-15] the figure was above 10000 µM. In the case of `N#Cc1ccc2c(Cc3c[nH]c4cc(C#N)ccc34)c[nH]c2c1` [BIM-17], the LC50 in data set [2] (setting [5]) is above 10000 µM.

For `O=[N+]([O-])c1ccc2c(Cc3c[nH]c4cc([N+](=O)[O-])ccc34)c[nH]c2c1` [BIM-18], the LC50 in data set [2] (Spodoptera frugiperda, read-out: LD50 (μM)) was above 10000 µM.

`Cc1ccc2c(Cc3c[nH]c4cc(C)ccc34)c[nH]c2c1` [BIM-19]: the LC50 in data set [2] (setting [5]) is 1410 µM.

For the compound `COc1ccc2c(Cc3c[nH]c4cc(OC)ccc34)c[nH]c2c1` [BIM-20], the LC50 in data set [2] (setting [6]) is on record as above 3000 µM. Turning to `FC(F)(F)c1ccc2c(Cc3c[nH]c4cc(C(F)(F)F)ccc34)c[nH]c2c1` [BIM-21], the LC50 in data set [2] (setting [5]) is 974 µM. `CC(c1c[nH]c2cc(Cl)ccc12)c1c[nH]c2cc(Cl)ccc12` [BIM-22]: the LC50 in data set [2] (setting [5]) was below 3000 µM. Consider `CCC(c1c[nH]c2cc(Cl)ccc12)c1c[nH]c2cc(Cl)ccc12` [BIM-23], for which, in data set [2] (setting [5]), the LC50 was 1350 µM. As for `CCCC(c1c[nH]c2cc(Cl)ccc12)c1c[nH]c2cc(Cl)ccc12` [BIM-24], the LC50 in data set [2] (setting [5]) is 678 µM. As to `c1ccc2c(C(CCCC(c3c[nH]c4ccccc34)c3c[nH]c4ccccc34)c3c[nH]c4ccccc34)c[nH]c2c1` [BIM-27], the LC50 in data set [2] (setting [5]) is above 5000 µM.

`Clc1ccc(C(c2c[nH]c3cc(Cl)ccc23)c2c[nH]c3cc(Cl)ccc23)cc1` [BIM-33]: the LC50 in data set [2] (setting [5]) was 485 µM. For `Clc1ccc2c(C(c3cccc(Br)c3)c3c[nH]c4cc(Cl)ccc34)c[nH]c2c1` [BIM-35], in data set [2] (setting [5]), the LC50 is 429 µM.

With `Clc1ccc2c(Cc3c[nH]c4ccccc34)c[nH]c2c1` [BIM-36], the LC50 in data set [2] (setting [6]) is listed as 2457 µM. With `Clc1ccc2c(C(c3ccc(Br)cc3)c3c[nH]c4ccccc34)c[nH]c2c1` (centres unmarked) [BIM-37 R/S 1:1], the LC50 in data set [2] (setting [6]) was 725 µM. `Clc1ccc2c(C(c3ccc(Br)cc3)c3c[nH]c4ccccc34)c[nH]c2c1` (centres unmarked) [BIM-37 R/S 3:1]: the LC50 in data set [2] (setting [6]) is given as 576 µM. Consider `CN(C)Cc1c[nH]c2ccccc12` [gramine], for which, in data set [1] (Aedes aegypti, 72 h), the LC50 was 189 µg/mL and 1.08 mM. Take `OCc1c[nH]c2ccccc12` [indole-3-carbinol]: in data set [1] (in vivo), the LC50 came out at 453 ± 307 µM and the “LC50 (μg/mL)” value worked out at 66.7 ± 45.2 µg/mL (≈ 453 µM). As to `c1ccc2[nH]ccc2c1` [indole], the LC50 in data set [1] (Aedes aegypti, 72 h) was 40.2 µg/mL and 344 µM.
